Key:
[1] = tested on: matrix metalloproteinase-9 (MMP-9); experiment: Inhibition of MMP-9 gene expression/synthesis in platelet-monocyte aggregates adherent to collagen type I; assay type: cell-based, Human; conditions: adhered to collagen type I for 18 hours, 9 independent experiments
Description: Inhibition of MMP-9 Gene Expression in Platelet-Monocyte Aggregates by the Dipyridamole Component of Aggrenox® (AGG)
Aggrenox® (AGG) is a fixed dosed combination of extended-release dipyridamole (DIP) and aspirin (ASA). AGG is recommended in the protection of secondary stroke and transient ischemic attacks. It also increases tissue perfusion in patients with stable angina or Raynaud's disease. It was determined if AGG blocked the synthesis of inflammatory genes produced by platelet-monocyte aggregates.
Human platelets and monocytes were pretreated with Dipyridamole (DIP) (5 μg/ml), ASA (625 ng/ml), or a DIP/ASA mixture (AGG); 5 μg/ml: 625 ng/ml, an 8:1 ratio of DIP/ASA). The cells were adhered to collagen type I. Synthesis of matrix metalloproteinase-9 (MMP-9) was determined. […] AGG and DIP reduced MMP-9 expression (53%, 61%, and a 17% reduction in MMP-9 synthesis compared to untreated cells for AGG, DIP, and ASA, respectively; results shown in FIG. 1). The inhibitory actions of AGG on gene expression are due to the DIP component of this |drug|.
FIG. 1: The Dipyridamole component of Aggrenox attenuates MMP-9 synthesis by monocytes (monos) adherent to platelets (pits) and collagen. […] The cells were subsequently adhered to Collagen Type 1 for 18 hours and MMP-9 expression was measured. […]

[2] = ESPS-2; compared with aspirin; cited from earlier work

Structure (SMILES)	reduction in MMP-9 synthesis compared to untreated cells ([1]; human platelets and monocytes pretreated 15 minutes with 625 ng/ml) [%]	reduction in MMP-9 synthesis compared to untreated cells ([1]; human platelets and monocytes pretreated 15 minutes with 5 μg/ml) [%]	reduction of stroke risk [2]
CC(=O)Oc1ccccc1C(=O)O [ASA, acetylsalicalic acid]	17		
OCCN(CCO)c1nc(N2CCCCC2)c2nc(N(CCO)CCO)nc(N3CCCCC3)c2n1 [DIP, 2,6-bis(diethanolamino)-4,8-dipiperidino-pyrimido[5,4-d]pyrimidine]		61	as effective as low-dose aspirin

Source: patent US20050282830A1, “Use of dipyridamole or mopidamole for treatment and prevention of MMP-9-dependent disorders” (Boehringer Ingelheim International GmbH, priority 2003, published 2005)
